The record followed here is US20260297081A1, “COMPOUNDS AND METHODS OF TREATING CANCERS” (Cullgen Inc., priority 2023, published 2026).

Molecules are shown by their SMILES. A value given as a limit tells only on which side of the number the result lay.

This assay concerns the target CDK4 (Homo sapiens, UniProt P11802+Q16531). Kind of assay: CDK4 percentage degradation in Calu-1 cells (Table 6). The format is cell-based. The arrangement: Cells that express cyclin D1-3 and CDK4/6 proteins were treated with heterobifunctional compounds; endogenous in cells; host or cells: Calu-1. Conditions: 16 hours; for inhibition at 0.04 µM: 40 nM; for inhibition at 0.2 µM: 200 nM. In short, it runs like this: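 Percentage degradation of Cyclin D1 and CDK4 derived from densitometry of ECL Western blots on lysates of Calu-1 cells. Treatment was 16 h with compound at either 40 nM or 200 nM.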

Chain of CDK4 (P11802 2-303 limits assumed): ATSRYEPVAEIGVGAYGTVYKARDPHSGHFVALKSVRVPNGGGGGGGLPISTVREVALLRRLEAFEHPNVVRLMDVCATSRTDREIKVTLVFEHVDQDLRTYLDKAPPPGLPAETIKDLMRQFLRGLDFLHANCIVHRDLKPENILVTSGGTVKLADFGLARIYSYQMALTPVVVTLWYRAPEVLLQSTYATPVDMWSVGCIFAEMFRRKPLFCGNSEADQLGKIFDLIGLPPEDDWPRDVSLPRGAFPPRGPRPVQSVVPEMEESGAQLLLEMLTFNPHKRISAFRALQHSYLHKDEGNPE
Chain of CDK4 (P24385 whole entry partner): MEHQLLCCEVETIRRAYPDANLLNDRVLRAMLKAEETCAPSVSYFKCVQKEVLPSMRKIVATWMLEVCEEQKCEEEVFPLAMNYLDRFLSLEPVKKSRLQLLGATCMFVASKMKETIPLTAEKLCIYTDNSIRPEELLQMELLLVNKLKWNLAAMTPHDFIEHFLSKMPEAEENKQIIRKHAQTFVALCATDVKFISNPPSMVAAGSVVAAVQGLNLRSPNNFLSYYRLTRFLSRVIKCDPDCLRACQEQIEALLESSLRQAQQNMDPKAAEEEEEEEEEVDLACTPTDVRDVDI
Chain of CDK4 (Q16531 2-1140 limits assumed): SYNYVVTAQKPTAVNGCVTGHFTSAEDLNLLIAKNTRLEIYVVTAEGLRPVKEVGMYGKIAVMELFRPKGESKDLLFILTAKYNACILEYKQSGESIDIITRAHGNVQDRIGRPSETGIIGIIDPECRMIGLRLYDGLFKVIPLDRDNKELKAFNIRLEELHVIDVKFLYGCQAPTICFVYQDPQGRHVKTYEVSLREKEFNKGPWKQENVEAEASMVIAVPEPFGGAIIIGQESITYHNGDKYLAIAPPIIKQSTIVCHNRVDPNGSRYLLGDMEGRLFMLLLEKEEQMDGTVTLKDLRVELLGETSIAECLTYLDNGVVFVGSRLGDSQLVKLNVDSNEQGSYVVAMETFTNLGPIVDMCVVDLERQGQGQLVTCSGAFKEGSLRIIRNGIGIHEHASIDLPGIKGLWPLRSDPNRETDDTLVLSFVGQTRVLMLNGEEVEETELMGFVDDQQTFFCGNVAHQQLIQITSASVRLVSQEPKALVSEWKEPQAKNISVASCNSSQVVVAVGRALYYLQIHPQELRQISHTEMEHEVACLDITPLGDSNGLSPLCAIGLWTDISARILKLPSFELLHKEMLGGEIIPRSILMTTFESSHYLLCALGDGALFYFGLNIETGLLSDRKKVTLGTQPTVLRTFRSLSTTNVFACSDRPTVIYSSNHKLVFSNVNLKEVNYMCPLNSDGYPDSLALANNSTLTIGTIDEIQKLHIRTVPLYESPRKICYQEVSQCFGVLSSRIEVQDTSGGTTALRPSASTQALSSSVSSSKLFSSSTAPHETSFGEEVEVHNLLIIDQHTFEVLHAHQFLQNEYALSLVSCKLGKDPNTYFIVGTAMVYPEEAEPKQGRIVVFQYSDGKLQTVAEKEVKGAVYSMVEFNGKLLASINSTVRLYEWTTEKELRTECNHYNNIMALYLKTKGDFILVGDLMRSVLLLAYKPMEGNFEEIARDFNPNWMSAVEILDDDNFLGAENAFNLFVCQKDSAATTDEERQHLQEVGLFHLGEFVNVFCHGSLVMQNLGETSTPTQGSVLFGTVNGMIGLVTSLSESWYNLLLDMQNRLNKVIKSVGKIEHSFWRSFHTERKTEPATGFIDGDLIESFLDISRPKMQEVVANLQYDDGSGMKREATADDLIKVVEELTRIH

Usually inhibition stands for how much of the control response was suppressed. The low end stands for little suppression, the high end for strong suppression. Consider `CNc1ccc(C(=O)Nc2cc(C)on2)c(NC2CC(NC(=O)CN3CCN(c4ccc(Nc5ncc6c(C)c(C(C)=O)c(=O)n(C7CCCC7)c6n5)nc4)CC3)C2)n1` (centres unmarked) [CPD-198, 2-((3-(2-(4-(6-((6-acetyl-8-cyclopentyl-5-methyl-7-oxo-7,8-dihydropyrido[2,3-d]pyrimidin-2-yl)amino)pyridin-3-yl)piperazin-1-yl)acetamido)cyclobutyl)amino)-6-(methylamino)-N-(5-methylisoxazol-3-yl)nicotinamide], for which the inhibition at 0.04 µM was less than 30% and the inhibition at 0.2 µM fell in the range of 30 to 50%.

Molecule `CNc1ccc(C(=O)Nc2ccc(N(C)C)nn2)c(NC2CCN(C(=O)CN3CCN(c4ccc(Nc5ncc6c(C)c(C(C)=O)c(=O)n(C7CCCC7)c6n5)nc4)CC3)C2)n1` (centres unmarked) [CPD-201, 2-((1-(2-(4-(6-((6-acetyl-8-cyclopentyl-5-methyl-7-oxo-7,8-dihydropyrido[2,3-d]pyrimidin-2-yl)amino)pyridin-3-yl)piperazin-1-yl)acetyl)pyrrolidin-3-yl)amino)-N-(6-(dimethylamino)pyridazin-3-yl)-6-(methylamino)nicotinamide] returned an inhibition at 0.04 µM of 30 to 50% and an inhibition at 0.2 µM of 50 to 80%.

`CNc1ccc(C(=O)Nc2ccc(N(C)C)nn2)c(NC[C@H]2CC[C@H](CCC(=O)N3CCN(c4ccc(Nc5ncc6c(C)c(C(C)=O)c(=O)n(C7CCCC7)c6n5)nc4)CC3)CC2)n1` [CPD-204, 2-(((trans-4-(3-(4-(6-((6-acetyl-8-cyclopentyl-S-methyl-7-oxo-7,8-dihydropyrido[2,3-d]pyrimidin-2-yl)amino)pyridin-3-yl)piperazin-1-yl)-3-oxopropyl)cyclohexyl)methyl)amino)-N-(6-(dimethylamino)pyridazin-3-yl)-6-(methylamino)nicotinamide] returned an inhibition at 0.04 µM of less than 30% and an inhibition at 0.2 µM of 50 to 80%.

For `CC(=O)c1c(C)c2cnc(Nc3ccc(N4CCN(CC(=O)NC5CC6(C5)CC(Nc5nc(C)ccc5C(=O)Nc5cn(C)c(C7CC7)n5)C6)CC4)cn3)nc2n(C2CCCC2)c1=O` (centres unmarked) [CPD-207, 2-((6-(2-(4-(6-((6-acetyl-8-cyclopentyl-5-methyl-7-oxo-7,8-dihydropyrido[2,3-d]pyrimidin-2-yl)amino)pyridin-3-yl)piperazin-1-yl)acetamido)spiro[3.3]heptan-2-yl)amino)-N-(2-cyclopropyl-1-methyl-1H-imidazol-4-yl)-6-methylnicotinamide], the inhibition at 0.04 µM was in the range of 30 to 50% and the inhibition at 0.2 µM was 50 to 80%.

In turn, `CCc1ccc(C(=O)Nc2cc(C)n(C)n2)c(NC2CC(CNC(=O)CN3CCN(c4ccc(Nc5ncc6c(C)c(C(C)=O)c(=O)n(C7CCCC7)c6n5)nc4)CC3)C2)n1` (centres unmarked) [CPD-210, 2-((3-((2-(4-(6-((6-acetyl-8-cyclopentyl-5-methyl-7-oxo-7,8-dihydropyrido[2,3-d]pyrimidin-2-yl)amino)pyridin-3-yl)piperazin-1-yl)acetamido)methyl)cyclobutyl)amino)-N-(1,5-dimethyl-1H-pyrazol-3-yl)-6-ethylnicotinamide] yielded an inhibition at 0.04 µM of 30 to 50% and an inhibition at 0.2 µM of 50 to 80%.

With `CNc1ccc(C(=O)Nc2ccc(N(C)C)nn2)c(NC2CN(C(=O)CCCN3CCN(c4ccc(Nc5ncc6c(C)c(C(C)=O)c(=O)n(C7CCCC7)c6n5)nc4)CC3)C2)n1` [CPD-211, 2-((1-(4-(4-(6-((6-acetyl-8-cyclopentyl-5-methyl-7-oxo-7,8-dihydropyrido[2,3-d]pyrimidin-2-yl)amino)pyridin-3-yl)piperazin-1-yl)butanoyl)azetidin-3-yl)amino)-N-(6-(dimethylamino)pyridazin-3-yl)-6-(methylamino)nicotinamide], the inhibition at 0.04 µM fell in the range of 30 to 50% and the inhibition at 0.2 µM was 30 to 50%.

As for `CC(=O)c1c(C)c2cnc(Nc3ccc(N4CCN(CC(=O)NCC5CC(Nc6nc(C(C)C)ccc6C(=O)Nc6cc(C)n(C)n6)C5)CC4)cn3)nc2n(C2CCCC2)c1=O` (centres unmarked) [CPD-212, 2-((3-((2-(4-(6-((6-acetyl-8-cyclopentyl-5-methyl-7-oxo-7,8-dihydropyrido[2,3-d]pyrimidin-2-yl)amino)pyridin-3-yl)piperazin-1-yl)acetamido)methyl)cyclobutyl)amino)-N-(1,5-dimethyl-1H-pyrazol-3-yl)-6-isopropylnicotinamide], the inhibition at 0.04 µM was 30 to 50% and the inhibition at 0.2 µM lay in the range of 50 to 80%.

`CC(=O)c1c(C)c2cnc(Nc3ccc(N4CCN(CC(=O)NCC5CC(Nc6nc(C7CC7)ccc6C(=O)Nc6cc(C)n(C)n6)C5)CC4)cn3)nc2n(C2CCCC2)c1=O` (centres unmarked) [CPD-213, 2-((3-((2-(4-(6-((6-acetyl-8-cyclopentyl-5-methyl-7-oxo-7,8-dihydropyrido[2,3-d]pyrimidin-2-yl)amino)pyridin-3-yl)piperazin-1-yl)acetamido)methyl)cyclobutyl)amino)-6-cyclopropyl-N-(1,5-dimethyl-1H-pyrazol-3-yl)nicotinamide] yielded an inhibition at 0.04 µM of 30 to 50% and an inhibition at 0.2 µM of 50 to 80%.

For the molecule `CNc1ccc(C(=O)Nc2cc(C3CC3)on2)c(NC2CC3(CC(NC(=O)CN4CCN(c5ccc(Nc6ncc7c(C)c(C(C)=O)c(=O)n(C8CCCC8)c7n6)nc5)CC4)C3)C2)n1` (centres unmarked) [CPD-215, 2-((6-(2-(4-(6-((6-acetyl-8-cyclopentyl-5-methyl-7-oxo-7,8-dihydropyrido[2,3-d]pyrimidin-2-yl)amino)pyridin-3-yl)piperazin-1-yl)acetamido)spiro[3.3]heptan-2-yl)amino)-N-(5-cyclopropylisoxazol-3-yl)-6-(methylamino)nicotinamide], the inhibition at 0.04 µM is less than 30% and the inhibition at 0.2 µM is less than 30%.

`CNc1ccc(C(=O)Nc2ccc(N(C)C)nn2)c(NC2CC3(C2)CC(OC(C)(C)C(=O)N2CCN(c4ccc(Nc5ncc6c(C)c(C(C)=O)c(=O)n(C7CCCC7)c6n5)nc4)CC2)C3)n1` (centres unmarked) [CPD-216, 2-((6-((1-(4-(6-((6-acetyl-8-cyclopentyl-5-methyl-7-oxo-7,8-dihydropyrido[2,3-d]pyrimidin-2-yl)amino)pyridin-3-yl)piperazin-1-yl)-2-methyl-1-oxopropan-2-yl)oxy)spiro[3.3]heptan-2-yl)amino)-N-(6-(dimethylamino)pyridazin-3-yl)-6-(methylamino)nicotinamide]: the inhibition at 0.04 µM is 30 to 50% and the inhibition at 0.2 µM was in the range of 50 to 80%.

The molecule `CNc1ccc(C(=O)Nc2ccc(OC)c(C)n2)c(NC2CC3(CC(NC(=O)CN4CCN(c5ccc(Nc6ncc7c(C)c(C(C)=O)c(=O)n(C8CCCC8)c7n6)nc5)CC4)C3)C2)n1` (centres unmarked) [CPD-220, 2-((6-(2-(4-(6-((6-acetyl-8-cyclopentyl-5-methyl-7-oxo-7,8-dihydropyrido[2,3-d]pyrimidin-2-yl)amino)pyridin-3-yl)piperazin-1-yl)acetamido)spiro[3.3]heptan-2-yl)amino)-N-(5-methoxy-6-methylpyridin-2-yl)-6-(methylamino)nicotinamide] came in with an inhibition at 0.04 µM of 30 to 50% and an inhibition at 0.2 µM of 50 to 80%.

The molecule `[2H]C([2H])([2H])Nc1ccc(C(=O)Nc2cc(C)on2)c(NC2CC3(CC(NC(=O)CN4CCN(c5ccc(Nc6ncc7c(C)c(C(C)=O)c(=O)n(C8CCCC8)c7n6)nc5)CC4)C3)C2)n1` (centres unmarked) [CPD-225, 2-((6-(2-(4-(6-((6-acetyl-8-cyclopentyl-5-methyl-7-oxo-7,8-dihydropyrido[2,3-d]pyrimidin-2-yl)amino)pyridin-3-yl)piperazin-1-yl)acetamido)spiro[3.3]heptan-2-yl)amino)-6-((methyl-d3)amino)-N-(5-methylisoxazol-3-yl)nicotinamide] showed an inhibition at 0.04 µM of 30 to 50% and an inhibition at 0.2 µM of 50 to 80%.

On to `[2H]C([2H])([2H])Nc1ccc(C(=O)Nc2cccc(C)n2)c(NC2CC3(C2)CC(OC(C)(C)C(=O)N2CCN(c4ccc(Nc5ncc6c(C)c(C(C)=O)c(=O)n(C7CCCC7)c6n5)nc4)CC2)C3)n1` (centres unmarked) [CPD-226, 2-((6-((1-(4-(6-((6-acetyl-8-cyclopentyl-5-methyl-7-oxo-7,8-dihydropyrido[2,3-d]pyrimidin-2-yl)amino)pyridin-3-yl)piperazin-1-yl)-2-methyl-1-oxopropan-2-yl)oxy)spiro[3.3]heptan-2-yl)amino)-6-((methyl-d3)amino)-N-(6-methylpyridin-2-yl)nicotinamide], for which the inhibition at 0.04 µM was less than 30% and the inhibition at 0.2 µM is 30 to 50%.

In the case of `CNc1ccc(C(=O)Nc2cc(C(C)C)on2)c(NC2CC3(CC(NC(=O)CN4CCN(c5ccc(Nc6ncc7c(C)c(C(C)=O)c(=O)n(C8CCCC8)c7n6)nc5)CC4)C3)C2)n1` (centres unmarked) [CPD-227, 2-((6-(2-(4-(6-((6-acetyl-8-cyclopentyl-5-methyl-7-oxo-7,8-dihydropyrido[2,3-d]pyrimidin-2-yl)amino)pyridin-3-yl)piperazin-1-yl)acetamido)spiro[3.3]heptan-2-yl)amino)-N-(5-isopropylisoxazol-3-yl)-6-(methylamino)nicotinamide], the inhibition at 0.04 µM is less than 30% and the inhibition at 0.2 µM was less than 30%.

`CNc1ccc(C(=O)Nc2cc(C)n(C)n2)c(NC2CCN(C(=O)CN3CCN(c4ccc(Nc5ncc6c(C)c(C(C)=O)c(=O)n(C7CCCC7)c6n5)nc4)CC3)CC2)n1` [CPD-228, 2-((1-(2-(4-(6-((6-acetyl-8-cyclopentyl-5-methyl-7-oxo-7,8-dihydropyrido[2,3-d]pyrimidin-2-yl)amino)pyridin-3-yl)piperazin-1-yl)acetyl)piperidin-4-yl)amino)-N-(1,5-dimethyl-1H-pyrazol-3-yl)-6-(methylamino)nicotinamide] showed an inhibition at 0.04 µM of less than 30% and an inhibition at 0.2 µM of 30 to 50%.

`CNc1ccc(C(=O)Nc2cc(C)on2)c(NC2CCN(C(=O)CN3CCN(c4ccc(Nc5ncc6c(C)c(C(C)=O)c(=O)n(C7CCCC7)c6n5)nc4)CC3)CC2)n1` [CPD-229, 2-((1-(2-(4-(6-((6-acetyl-8-cyclopentyl-5-methyl-7-oxo-7,8-dihydropyrido[2,3-d]pyrimidin-2-yl)amino)pyridin-3-yl)piperazin-1-yl)acetyl)piperidin-4-yl)amino)-6-(methylamino)-N-(5-methylisoxazol-3-yl)nicotinamide] registered an inhibition at 0.04 µM of 30 to 50% and an inhibition at 0.2 µM of 50 to 80%.
